Article PMC12612990, “PNA5, a glycosylated angiotensin-(1−7) mas receptor agonist for vascular dementia: A two species toxicology and toxicokinetic study” (Toxicology Reports, 2025)
Peptide text beside a SMILES is read from it. * marks the point of attachment. βGlc = OC[C@H]1O[C@@H](*)[C@H](O)[C@@H](O)[C@@H]1O

Legend:
[1] = Toxicokinetics of PNA5 in Beagle dog plasma; conditions: for Tmax: table: average (range), text b115: median; for AUC0–2hr accumulation ratio: day 28 vs day 1, sexes combined; for fold increase in AUC0–2hr for a 20-fold increase in dose / fold increase in Cmax for a 20-fold increase in dose: 1 to 20 mg/kg/day; for time post-dose up to which PNA5 was quantifiable: days 1 and 28, limit of quantitation 5 ng/mL
Method: Toxicokinetic (TK) of PNA5 was obtained from plasma following a single and repeated subcutaneous injection administration of PNA5 once daily for 28 days. Blood samples were collected on days 1 and 28 at the following time points: pre-dose and at approximately 5, 15, 30, 60, and 120 min post-dose (equivalent to 0.083, 0.25, 0.5, 1, and 2 h).
For the rat study, a total of 6 rats for each sex were assigned randomly to treatment groups 2–4 (those treated with PNA5). Three rats per sex were assigned to group 1 (vehicle control). Rats were sampled in satellite groups; rats' blood was taken at alternating time points, resulting in a total n = 3 per time point for six animals. For the dog study, three animals per sex were assigned to group 2 and group 3, and five animals per sex were assigned to group 1 and group 4. Blood was collected from canines via venipuncture.
Blood was collected in heparinized tubes containing a protease inhibitor cocktail consisting of 4 mM 0-phenanthroline, 1.2 mM pepstatin A, and 0.5 M EDTA. Blood samples were centrifuged for 15 min at 2500 x g at room temperature. Plasma was transferred into pre-cooled, pre-labeled collection tubes, frozen immediately in liquid nitrogen/dry ice, and stored at −80 °C until analysis.
PNA5 levels were analyzed using ultra-high performance liquid chromatography (UHPLC) with tandem mass spectrometric (MS/MS) detection. Precision and accuracy, reproducibility, selectivity, carryover, recovery, matrix effects, dilution integrity, hemolysis, stock stability, and matrix stability were assessed prior to initiation of the validation. Samples (5 µL) were injected onto the column and separated using gradient elution. Target compounds were quantified by summing the height of previously identified fragment peaks in the LC-MS [3] spectra. The serum concentrations were estimated using a calibration curve, accounting for the dilution factors and the probe recoveries for each experiment. Standards were matrix-matched to samples and underwent the same sample preparation steps.
A noncompartmental analysis was used for parameter estimation. For PNA5 in plasma, the extravascular model was used for parameter estimation. For the rat study, all parameters were generated from PNA5 individual concentrations in plasma from days 1 and 28. Parameters were estimated using nominal dose levels and nominal sampling times relative to the dose administration. Plasma concentration values obtained at the pre-dose time point were used as the concentration at time 0 on days 1 and 28. For the dog study, all parameters were generated from PNA5 individual concentrations in plasma from days 1 and 28. Parameters were estimated using nominal dose levels and nominal sampling times relative to dose administration. Plasma concentration values obtained at the pre-dose time point were used as the concentration at time 0 on days 1 and 28. For Beagle dogs, concentration values reported as below the limit of quantitation (< 5 ng/mL) were assigned a value of 0.
The toxicokinetic parameters evaluated included the area under the curve of the plasma PNA5 concentration against time from time 0 (pre-dose) to 2 h (post-dose) (AUC0–2hr), the maximum plasma concentration (Cmax), time to maximum plasma concentration (Tmax), elimination rate (Kel), and the half-life. The area under the concentration vs. time curve was calculated using the linear trapezoidal method with linear interpolation for all profiles with at least three consecutive quantifiable concentrations. Kel was calculated from the slope using exponential regression of concentration versus time (Excel); exponential interpolations for all profiles include at least three concentrations plotted against time. Time 0 values and all concentrations listed as zero were excluded from Kel calculations. The half-life was calculated from Kel via the following equation: half-life Ln(2)/Kel.

[2] = Stability of dosing formulations; assay type: physicochemical; conditions: solutions in 0.9 % sodium chloride, 0.1 mg/mL and 10 mg/mL
Method: The analyzed dosing formulations were within the protocol-specified range of target concentrations for solutions and were stable at 0.1 mg/mL and 10 mg/mL following 24 h of room temperature storage and following 9 days of refrigerated storage.
The analyzed dosing formulations contained 95.5–108.7 % of the test article, which was within the protocol-specified range of target concentrations for solutions (90–110 %), and were stable at 0.1 mg/mL and 10 mg/mL following 24 h of room temperature storage and following 9 days of refrigerated storage. The test article was not detected in the analyzed vehicle formulation that was administered to the control groups.

Beagle dogs = assay: 28-day repeat-dose subcutaneous toxicology study (main and recovery) in Beagle dogs
[3] = dogs, 1, 5, 20 mg/kg/day s.c. for 28 days
[4] = dogs, main study, day 29 necropsy

With `CC[C@H](C)[C@H](NC(=O)[C@H](Cc1ccc(O)cc1)NC(=O)[C@@H](NC(=O)[C@H](CCCNC(=N)N)NC(=O)[C@@H](N)CC(=O)O)C(C)C)C(=O)N[C@@H](Cc1c[nH]cn1)C(=O)N[C@@H](CO[C@@H]1O[C@H](CO)[C@@H](O)[C@H](O)[C@H]1O)C(N)=O` [PNA5, Ang-1–6-Ser-O-Glu-NH2] (H-DRVYIHS(βGlc)-NH2) the AUC(0-t) ([1]; both, Beagle, dog, plasma, sc, 1 mg/kg/day, AUC0–2, dogs, plasma, s.c. 1 mg/kg/day, day 1, sexes combined, mean ± SD, n = 6, linear trapezoidal) was 63.5 ± 14.8 ng·h/mL, the Cmax ([1]; both, Beagle, dog, plasma, sc, 1 mg/kg/day, Cmax, Beagle dogs, plasma, s.c. once daily 1 mg/kg/day, day 1, sexes combined, mean ± SD, n = 6, UHPLC-MS/MS, noncompartmental) was 110 ± 37.3 ng/mL and the Cmax ([1]; both, Beagle, dog, plasma, sc, 1 mg/kg/day, Cmax, Beagle dogs, plasma, s.c. once daily 1 mg/kg/day, day 28, sexes combined, mean ± SD, n = 6, UHPLC-MS/MS, noncompartmental) was 146 ± 59.6 ng/mL. It also gave a half-life ([1]; both, Beagle, dog, plasma, sc, 1 mg/kg/day, dogs, plasma, s.c. 1 mg/kg/day, day 1, sexes combined, mean ± SD, n = 6, Ln(2)/Kel) of 17.4 ± 6 min, a half-life ([1]; both, Beagle, dog, plasma, sc, 1 mg/kg/day, dogs, plasma, s.c. 1 mg/kg/day, day 28, sexes combined, mean ± SD, n = 6, Ln(2)/Kel) of 15.6 ± 4.8 min and a Tmax ([1]; both, Beagle, dog, plasma, sc, 1 mg/kg/day, Tmax, dogs, plasma, s.c. 1 mg/kg/day, day 1, sexes combined) of 10 min. It also gave an AUC(0-t) ([1]; both, Beagle, dog, plasma, sc, 5 mg/kg/day, AUC0–2, dogs, plasma, s.c. 5 mg/kg/day, day 1, sexes combined, mean ± SD, n = 6, linear trapezoidal) of 358 ± 95.1 ng·h/mL, an AUC(0-t) ([1]; both, Beagle, dog, plasma, sc, 5 mg/kg/day, AUC0–2, dogs, plasma, s.c. 5 mg/kg/day, day 28, sexes combined, mean ± SD, n = 6, linear trapezoidal) of 365 ± 42.6 ng·h/mL and a Cmax ([1]; both, Beagle, dog, plasma, sc, 5 mg/kg/day, Cmax, Beagle dogs, plasma, s.c. once daily 5 mg/kg/day, day 1, sexes combined, mean ± SD, n = 6, UHPLC-MS/MS, noncompartmental) of 496 ± 115 ng/mL. The Cmax ([1]; both, Beagle, dog, plasma, sc, 5 mg/kg/day, Cmax, Beagle dogs, plasma, s.c. once daily 5 mg/kg/day, day 28, sexes combined, mean ± SD, n = 6, UHPLC-MS/MS, noncompartmental) was 444 ± 101 ng/mL, the half-life ([1]; both, Beagle, dog, plasma, sc, 5 mg/kg/day, dogs, plasma, s.c. 5 mg/kg/day, day 1, sexes combined, mean ± SD, n = 6, Ln(2)/Kel) was 30 ± 7.8 min and the half-life ([1]; both, Beagle, dog, plasma, sc, 5 mg/kg/day, dogs, plasma, s.c. 5 mg/kg/day, day 28, sexes combined, mean ± SD, n = 6, Ln(2)/Kel) was 34.8 ± 12.6 min. The Tmax ([1]; both, Beagle, dog, plasma, sc, 5 mg/kg/day, Tmax, dogs, plasma, s.c. 5 mg/kg/day, day 1, sexes combined) was 15 min, the Tmax ([1]; both, Beagle, dog, plasma, sc, 5 mg/kg/day, Tmax, dogs, plasma, s.c. 5 mg/kg/day, day 28, sexes combined) was 10 min and the AUC(0-t) ([1]; both, Beagle, dog, plasma, sc, 20 mg/kg/day, AUC0–2, dogs, plasma, s.c. 20 mg/kg/day, day 1, sexes combined, mean ± SD, n = 10, linear trapezoidal) was 1270 ± 270 ng·h/mL. For the same compound, the AUC(0-t) ([1]; both, Beagle, dog, plasma, sc, 20 mg/kg/day, AUC0–2, dogs, plasma, s.c. 20 mg/kg/day, day 28, sexes combined, mean ± SD, n = 10, linear trapezoidal) was 1080 ± 309 ng·h/mL, the Cmax ([1]; both, Beagle, dog, plasma, sc, 20 mg/kg/day, Cmax, Beagle dogs, plasma, s.c. once daily 20 mg/kg/day, day 1, sexes combined, mean ± SD, n = 10, UHPLC-MS/MS, noncompartmental) was 1440 ± 453 ng/mL and the Cmax ([1]; both, Beagle, dog, plasma, sc, 20 mg/kg/day, Cmax, Beagle dogs, plasma, s.c. once daily 20 mg/kg/day, day 28, sexes combined, mean ± SD, n = 10, UHPLC-MS/MS, noncompartmental) was 1120 ± 530 ng/mL. It also gave a half-life ([1]; both, Beagle, dog, plasma, sc, 20 mg/kg/day, dogs, plasma, s.c. 20 mg/kg/day, day 1, sexes combined, mean ± SD, n = 10, Ln(2)/Kel) of 41.4 ± 6 min, a half-life ([1]; both, Beagle, dog, plasma, sc, 20 mg/kg/day, dogs, plasma, s.c. 20 mg/kg/day, day 28, sexes combined, mean ± SD, n = 9, Ln(2)/Kel) of 48.6 ± 12.6 min and a Tmax ([1]; both, Beagle, dog, plasma, sc, 20 mg/kg/day, Tmax, dogs, plasma, s.c. 20 mg/kg/day, day 1, sexes combined) of 15 min. The Tmax ([1]; both, Beagle, dog, plasma, sc, 20 mg/kg/day, Tmax, dogs, plasma, s.c. 20 mg/kg/day, day 28, sexes combined) was 22.5 min, the “AUC0–2hr accumulation ratio” value ([1]; dogs, 1 mg/kg/day) was 0.99 and the “AUC0–2hr accumulation ratio” value ([1]; dogs, 5 mg/kg/day) was 1.02. The “AUC0–2hr accumulation ratio” value ([1]; dogs, 20 mg/kg/day) was 0.85, the “fold increase in AUC0–2hr for a 20-fold increase in dose” value ([1]; dogs, day 1, sexes combined) was about 20.06 fold and the “fold increase in Cmax for a 20-fold increase in dose” value ([1]; dogs, day 1, sexes combined) was about 13.06 fold. The “fold increase in AUC0–2hr for a 20-fold increase in dose” value ([1]; dogs, day 28, sexes combined) was about 17.19 fold, the “fold increase in Cmax for a 20-fold increase in dose” value ([1]; dogs, day 28, sexes combined) was about 7.70 fold and the “time post-dose up to which PNA5 was quantifiable” value ([1]; dogs, plasma, 1 mg/kg/day) was “up to 1 h”. For the same compound, the “time post-dose up to which PNA5 was quantifiable” value ([1]; dogs, plasma, 5 and 20 mg/kg/day, last sampling time 2 h) was “up to 2 h”, the Kel ([1]; dogs, plasma, s.c. 1 mg/kg/day, day 1, sexes combined, mean ± SD, n = 6, exponential regression) was 2.63 ± 0.97, 6 hr^–1 and the Kel ([1]; dogs, plasma, s.c. 1 mg/kg/day, day 28, sexes combined, mean ± SD, n = 6, exponential regression) was 2.87 ± 0.86, 6 hr^–1. For the same compound, the “AUC0–2” value ([1]; dogs, plasma, s.c. 1 mg/kg/day, day 28, sexes combined, mean ± SD, n = 6, linear trapezoidal) was 62.61 ± 19.05, 6 hr*ng/mL, the Tmax ([1]; dogs, plasma, s.c. 1 mg/kg/day, day 28, sexes combined) was 0.167(0.083–0.25) hr and the Kel ([1]; dogs, plasma, s.c. 5 mg/kg/day, day 1, sexes combined, mean ± SD, n = 6, exponential regression) was 1.44 ± 0.33, 6 hr^–1. For the same compound, the Tmax ([1]; dogs, plasma, s.c. 5 mg/kg/day, day 1, sexes combined) was 15 min, the Kel ([1]; dogs, plasma, s.c. 5 mg/kg/day, day 28, sexes combined, mean ± SD, n = 6, exponential regression) was 1.32 ± 0.43, 6 hr^–1 and the Tmax ([1]; dogs, plasma, s.c. 5 mg/kg/day, day 28, sexes combined) was 10 min. The Kel ([1]; dogs, plasma, s.c. 20 mg/kg/day, day 1, sexes combined, mean ± SD, n = 10, exponential regression) was 1.02 ± 0.17, 10 hr^–1, the Tmax ([1]; dogs, plasma, s.c. 20 mg/kg/day, day 1, sexes combined) was 15 min and the Kel ([1]; dogs, plasma, s.c. 20 mg/kg/day, day 28, sexes combined, mean ± SD, n = 10, exponential regression) was 0.86 ± 0.35, 10 hr^–1. For the same compound, the AUC(0-t) ([1]; female, Beagle, dog, plasma, sc, 20 mg/kg/day, mean AUC0–2hr, females, dogs, females, 20 mg/kg/day (NOAEL), day 28) was 1150 ng·h/mL, the Cmax ([1]; female, Beagle, dog, plasma, sc, 20 mg/kg/day, mean Cmax, females, dogs, females, 20 mg/kg/day (NOAEL), day 28) was 1140 ng/mL and the AUC(0-t) ([1]; male, Beagle, dog, plasma, sc, 20 mg/kg/day, mean AUC0–2hr, males, dogs, males, 20 mg/kg/day (NOAEL), day 28) was 1000 ng·h/mL. For the same compound, the Cmax ([1]; male, Beagle, dog, plasma, sc, 20 mg/kg/day, mean Cmax, males, dogs, males, 20 mg/kg/day (NOAEL), day 28) was 1100 ng/mL, the “stability of dosing formulations” value ([2]; 24 h of room temperature storage) was “stable” and the “stability of dosing formulations” value ([2]; 9 days of refrigerated storage) was “stable”. For the same compound, the “tolerability (mortality, adverse findings)” value (Beagle dogs; Beagle dogs, main and recovery studies, s.c. bolus once daily 28 days, 1, 5, 20 mg/kg/day) was “well tolerated at all doses with no effects on mortality or adverse findings”, the “no-observed-adverse-effect-level (NOAEL)” value (Beagle dogs; Beagle dogs, s.c. once daily for 28 days) was 20 mg/kg/day and the “body weights and body weight gains” value (Beagle dogs; [3]) was “unaffected”. The clinical observations (Beagle dogs; [3]) was “no test article-related clinical observations”, the electrocardiography (Beagle dogs; [3]) was “no test article-related clinical observations or effects” and the food consumption (Beagle dogs; [3]) was “unaffected”. For the same compound, the organ weights (Beagle dogs; [3]) was “no test article-related clinical observations or effects”, the survival (Beagle dogs; dogs, 1, 5 and 20 mg/kg/day s.c. for 28 days) was “All animals survived until the scheduled euthanasia” and the ophthalmic examinations (Beagle dogs; dogs, all test article-treated groups) was “No ophthalmic lesions indicative of toxicity were observed”. For the same compound, the “hematology, coagulation, clinical chemistry and urinalysis parameters” value (Beagle dogs; dogs, main study) was “unaffected”, the macroscopic findings (Beagle dogs; [4]) was “No test article-related macroscopic findings were noted” and the microscopic findings (Beagle dogs; [4]) was “No test article-related microscopic findings were noted”. The macroscopic findings (Beagle dogs; dogs, recovery study, day 43) was “No test article-related macroscopic findings were noted”, the microscopic findings (Beagle dogs; dogs, recovery study, day 43) was “No test article-related microscopic findings were noted” and the organ weights (Beagle dogs; dogs, recovery study, day 43) was “no test article-related organ weight changes”. The “subcutaneous injection sites with dark red subcutaneous foci” value (Beagle dogs; dogs, treated group animals, main study, lacked a dose response, considered an effect of subcutaneous injection) was 5 of 96.
